Measured values as given in patent publication EP0195147A1, “Trihalo(amine)gold(III) complexes” (ENGELHARD CORPORATION, priority 1985, dated 1986).
Where “and” joins values, the source holds several entries; their conditions need not be identical. Identical values can stand only once.

How the values were obtained:
[1] = system: S 180 ascites; assay: Anti-tumor screening against S 180 ascites (% increase in life span); format: in vivo, female CFW Swiss mice; conditions: for Survivors: survivors on day of evaluation (twice the mean life span of the control)
Description: The above prepared compounds were evaluated against §180 ascites in female CFW Swiss mice. The mice were weighed (average weight: 20 g), placed into cages (six mice to a cage) and on day zero the mice were inoculated with 0.2 ml of a freshly prepared saline suspension (0.15 M NaCl) containing 1 x 10^7 tumor cells/ml or a total of 2 x 10^6 cells. This inoculum was freshly prepared using "transfer" mice which had been injected with tumor cells the previous week; it was obtained via the following steps: (1) the removal of cells from the peritoneal cavity of the sacrificed transfer mouse, (2) alternate centrifugation and washing operations (2-3 times with cold saline) to remove blood and other components, and (3) dilution of the volume of the packed cell with saline (1:3). A final centrifugation was carried out at 1000 RPM over a two minute period. A cell count was made on a 2,000-fold dilution of this 1:3 suspension by means of a Coulter Counter. A final dilution to […] cells/ml was made based on the average count.
On day 1, solutions of the test compounds were prepared and each mouse in a set of six were injected with the same test compound at the same dosage. The doses were based on the average weight of the animals (cage weight). Also, beginning on day 1 two controls were employed containing six mice per control; • (1) Normal Control: This consisted solely of the carrier or diluent used in combination with the test compound; and • (2) Positive Control: This consisted solely of the known anti-tumor agent cis-[Pt(NH3)2C12] (Cisplatin) in saline (8 mg/kg) to test the response of the
The effectiveness of a test compound was measured in terms of the % increase in life span (%ILS) of the test mice relative to the Normal Control (Calculated from the day of tumor inoculation, ie., day zero). To standardize the test data and permit intercomparisons, the day of evaluation was arbitrarily taken as that day corresponding to twice the mean life span (or average day of death) of the control. This established a practical upper limit of 100% on the %ILS attainable. For calculation purposes the survivors on the day of evaluation were considered to have died on that day. The %ILS was calculated as follows: [formula] ILS values in excess of 50% were interpreted as being indicative of anti-tumor activity, whereas, values in excess of 75% indicated excellent activity.
The products of Examples 1, 4, 10 and 11 were administered in a freshly prepared 1% sodium bicarbonate solution; the remaining test compounds were administered as slurries in 0.5% "Klucel" (hydroxypropylcellulose). All products (I) are insoluble in water.

[2] = Therapeutic indices, ED90 and LD50 by the method of Miller and Tainter; set-up: species or system Swiss white mice; conditions: mouse, in vivo; for selectivity ratio: LD50/ED90, read-out: Therapeutic Index; for LD50: lethal dose to 50% of the animals
Description: The therapeutic indices for the present compounds (I), their effective dose (ED90) and lethal dose (LD50) were determined according to the method of Miller and Tainter (Reported by R. A. Turner, "Screening Methods in Pharmacology", Academic Press, New York, pages 61-62 (1976)).

[3] = system: implanted Sarcoma 180 tumors; conditions: value attributed to commercially available Cisplatin; cited from earlier work
[4] = Solubility; format: physicochemical; conditions: 1% sodium bicarbonate solution; read-out: soluble in 1% sodium bicarbonate solution to the extent of

Structure (SMILES) | Survivors ([1]; Dose 10 mg/kg) | Survivors ([1]; Dose 20 mg/kg) | Survivors ([1]; Dose 40 mg/kg) | Survivors ([1]; Dose 80 mg/kg) | Survivors ([1]; Dose 160 mg/kg) | Survivors ([1]; Dose 320 mg/kg) | selectivity ratio [2] | LD50 [2] [mg/kg] | Positive Control Survivors ([1]; Cisplatin in saline, 8 mg/kg, run alongside the example of the same table line, listed as Positive Control) | Therapeutic Index [3] | Survivors ([1]; Dose 5 mg/kg) | solubility [4] [mg/mL] | anti-tumor activity (in words) ([1]; 50% ILS criterion, all doses tested) | anti-tumor activity (in words) ([1]; within the 20-40 mg/kg range)
Cn1cc[n+]([Au-]([Br])([Br])[Br])c1 [Ex. 9, Tribromo(N-Methylimidazole)Gold(III)] | 0 of 6 | 4 of 6 | 3 of 6 | 1 of 6 | 0 of 6 | 0 of 6 | 2 | 85 |  |  |  |  |  | 
N.N.[Cl][Pt][Cl] [Cisplatin, cis-[Pt(NH3)2C12], reference compound] |  |  |  |  |  |  |  |  | 0 of 6 and 4 of 6 and 1 of 6 and 6 of 6 | 2.2-2.5 |  |  |  | 
[Cl][Au-]([Cl])([Cl])[n+]1cc[nH]c1 [Ex. 8, trichloro(imidazole)gold(III)] | 0 of 6 | 1 of 6 | 0 of 6 | 1 of 6 | 2 of 6 |  |  |  |  |  | 0 of 6 |  |  | 
O=C(O)c1ccc[n+]([Au-]([Br])([Br])[Br])c1 [Ex. 10] | 0 of 6 | 0 of 6 | 2 of 6 | 0 of 6 | 0 of 6 | 0 of 6 |  |  |  |  |  | 12.8 |  | 
[Cl][Au-]([Cl])([Cl])[n+]1ccccc1 [Ex. 7, trichloro(pyridine)gold(III)] | 3 of 6 | 2 of 6 | 3 of 6 | 2 of 6 | 0 of 6 | 0 of 6 |  |  |  |  |  |  |  | 
OCc1ccc[n+]([Au-]([Cl])([Cl])[Cl])c1 [Ex. 6] | 0 of 6 | 1 of 6 | 3 of 6 | 0 of 6 | 0 of 6 | 0 of 6 | 2.1 | 90 |  |  |  |  |  | 
O=C(O)Cc1ccc[n+]([Au-]([Cl])([Cl])[Cl])c1 [Ex. 4, trichloro-(3-pyridyacetic acid)gold(III)] | 0 of 6 | 0 of 6 | 1 of 6 | 1 of 6 | 0 of 6 | 0 of 6 | 1.8 | 150 |  |  |  | 12.8 |  | 
O=C(O)Cc1ccc[n+]([Au-]([Cl])([Cl])[Cl])c1 [trichloro-(3-pyridyacetic acid)gold(III)] |  |  |  |  |  |  |  |  |  |  |  |  | pronounced anti-tumor effect | 
Cn1cc[n+]([Au-]([Cl])([Cl])[Cl])c1 [Ex. 2, Trichloro(N-Methylimidazole)Gold(III)] | 0 of 6 | 1 of 6 | 4 of 6 | 1 of 6 | 0 of 6 |  | 2.8 | 90 |  |  | 0 of 6 |  |  | decidedly active
Oc1ccc[n+]([Au-]([Cl])([Cl])[Cl])c1 [Ex. 5] | 0 of 6 | 2 of 6 | 3 of 6 | 2 of 6 | 0 of 6 | 0 of 6 |  |  |  |  |  |  |  | 
CC(=O)c1ccc[n+]([Au-]([Cl])([Cl])[Cl])c1 [Ex. 3, trichloro(3-acetylpyridine)gold(III)] | 0 of 6 | 1 of 6 | 5 of 6 | 4 of 6 | 0 of 6 | 0 of 6 | 4.5 | 140 |  |  |  |  |  | 
O=C(O)c1ccc[n+]([Au-]([Cl])([Cl])[Cl])c1 [Ex. 1, Trichloro(Nicotinic Acid)Gold(III)] | 0 of 6 | 3 of 6 | 3 of 6 | 4 of 6 | 0 of 6 | 0 of 6 | 5.8 | 180 |  |  |  | 12.8 |  | 
O=C(O)Cc1ccc[n+]([Au-]([Br])([Br])[Br])c1 [Ex. 11, tribromo(3-pyridylacetic acid)gold(III)] | 0 of 6 | 0 of 6 | 0 of 6 | 1 of 6 | 0 of 6 | 0 of 6 |  |  |  |  |  | 12.8 |  | 
